# Key:
# [1] = tested on: Mycobacterium aurum DSM 43999 (ATCC 23366); assay: Microdilution broth, modified Microplate Alamar Blue Assay, whole cell growth inhibition; assay type: cell-based; conditions: Mycolicibacterium aurum; in vitro, Middlebrook 7H9 broth, resazurin; read-out: MIC Mycobacterium aurum
# [2] = tested on: Serratia marcescens; assay: Antibacterial microdilution broth method (EUCAST); assay type: cell-based; conditions: 48 h, standards, read-out: MIC against Serratia marcescens
# [3] = tested on: Mycobacterium smegmatis DSM 43465 (ATCC 607); assay: Microdilution broth, modified Microplate Alamar Blue Assay, whole cell growth inhibition; assay type: cell-based; conditions: Mycolicibacterium smegmatis; in vitro, Middlebrook 7H9 broth, resazurin; read-out: MIC Mycobacterium smegmatis
# [4] = tested on: Mycobacterium tuberculosis H37Ra ITM-M006710 (ATCC 9431); assay: as above; assay type: cell-based; conditions: Mycobacterium tuberculosis; in vitro, Middlebrook 7H9 broth, resazurin; read-out: MIC Mtb H37Ra
# [5] = tested on: Staphylococcus aureus methicillin resistant ATCC 43300, CCM 4750; assay: microbe, parasite or virus in culture; assay type: cell-based; conditions: 48 h, read-out: MIC against Staphylococcus aureus methicillin resistant
# [6] = tested on: Staphylococcus aureus spp.aureus ATCC 29213, CCM 4223; assay: Antibacterial microdilution broth method (EUCAST); assay type: cell-based; conditions: 48 h, read-out: MIC against Staphylococcus aureus
# [7] = tested on: Klebsiella pneumoniae ATCC 10031, CCM 4415; assay: Antibacterial microdilution broth method (EUCAST); conditions: Klebsiella pneumoniae, ATCC10031|CCM4415, 48 h, read-out: MIC against Klebsiella pneumoniae
# [8] = tested on: Escherichia coli ATCC 25922, CCM 3954; assay: Antibacterial microdilution broth method (EUCAST); assay type: cell-based; conditions: 48 h, read-out: MIC against Escherichia coli
# [9] = tested on: Enterococcus faecalis ATCC 29212, CCM 4224; assay: Antibacterial microdilution broth method (EUCAST); assay type: cell-based; conditions: 48 h, read-out: MIC against Enterococcus faecalis
# [10] = tested on: Staphylococcus epidermidis ATCC 12228, CCM 4418; assay: Antibacterial microdilution broth method (EUCAST); assay type: cell-based; conditions: 48 h, read-out: MIC against Staphylococcus epidermidis
# [11] = tested on: Pseudomonas aeruginosa ATCC 27853, CCM 3955; assay: Antibacterial microdilution broth method (EUCAST); assay type: cell-based; conditions: 48 h, read-out: MIC against Pseudomonas aeruginosa
# [12] = tested on: HepG2 cells; assay: HepG2 cytotoxicity, CellTiter 96 (MTS) assay; assay type: cell-based, human
# [13] = tested on: M. kansasii CNCTC My 235/80 (ATCC 12478); assay: 96 well plate microdilution broth method with Alamar Blue; assay type: cell-based; conditions: Mycobacterium kansasii, ATCC12478; Middlebrook 7H9 broth pH 6.6; read-out: MIC Mycobacterium kansasii
# [14] = tested on: M. avium ssp. avium CNCTC My 80/72 (ATCC 15769); assay: as above; assay type: cell-based; conditions: Mycobacterium avium, ATCC15769; Middlebrook 7H9 broth pH 6.6; read-out: MIC Mycobacterium avium
# [15] = assay type: physicochemical
# How it was run: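 Broth microdilution per EUCAST, slightly modified, against clinically relevant fungal and bacterial strains; MIC expressed in µM.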
SMILES,MIC [1],MIC [2],MIC [3],MIC [4],MIC [5],MIC [6],MIC [7],MIC [8],MIC [9],MIC [10],MIC [11],"IC50 ([12]; Homo sapiens, HepG2, 24 h incubation, > means higher concentration not reproducible due to precipitation, read-out: HepG2 IC50)","SI, selectivity index ([12]; IC50 (HepG2)/MIC against Mtb H37Ra (in µM))",MIC [13],MIC [14],melting point,Solubility problem in antibacterial/antifungal testing [15]
"O=C(O)c1cn(C2CC2)c2cc(N3CCNCC3)c(F)cc2c1=O [CPX, ciprofloxacin, reference compound]",0.0156 to 0.0313 µg/mL,0.256 µg/mL,0.0625 to 0.125 µg/mL,0.125 to 0.25 µg/mL,,,,,,,,,,,,,
"CNC(C)C1CCC(N)C(OC2C(N)CC(N)C(OC3OCC(C)(O)C(NC)C3O)C2O)O1 (stereo not drawn) [gentamicin, reference compound]",,2 µg/mL,,,16 to 32 µg/mL,1 µg/mL,> 8 µg/mL,1 to 2 µg/mL,8 µg/mL,> 8 µg/mL,0.5 µg/mL,,,,,,
"CCCCCCNc1cnc(C(=O)Nc2ccc(Cl)cc2O)cn1 [Compound 6d, N-(4-chloro-2-hydroxyphenyl)-5-(hexylamino)pyrazine-2-carboxamide]",≥ 500 µg/mL,,3.91 µg/mL,3.13 µg/mL,,,,,,,,> 50 µM,>5.27,25 µg/mL,> 100 µg/mL,201.7 to 204.9 °C,did not dissolve in DMSO
